Marks after values point to notes of the source that are not given here.
Assay: logP determination by retention times (calibration with alkan-2-ones)
Settings: not given
`CCc1nc(C)c(-c2ccnc(Nc3cccc(C(F)(F)F)c3)n2)s1` [Example 241, 4-(2-ethyl-4-methyl-1,3-thiazol-5-yl)-N-[3-(trifluoromethyl)phenyl]pyrimidine-2-amine] gave a chromatographic logP of 3.85. `COCc1nc(C)c(-c2ccnc(Nc3ccccc3)n2)s1` [Example 301, 4-[2-(methoxymethyl)-4-methyl-1,3-thiazol-5-yl]-N-phenylpyrimidine-2-amine] showed a chromatographic logP of 3.01. For `Cc1nc(C2CC2)sc1-c1ccnc(Nc2ccc(N(C)C)c(Cl)c2)n1` [Example 63, 2-chloro-N4-[4-(2-cyclopropyl-4-methyl-1,3-thiazol-5-yl)pyrimidin-2-yl]-N1,N1-dimethylbenzene-1,4-diamine], the chromatographic logP was 2.59. `COc1ccc(Nc2nccc(-c3sc(C)nc3C)n2)cn1` [Example 187, 4-(2,4-dimethyl-1,3-thiazol-5-yl)-N-(6-methoxypyridin-3-yl)pyrimidine-2-amine] showed a chromatographic logP of 2.09. Compound `CCc1nc(C)c(-c2ccnc(Nc3cccc([N+](=O)[O-])c3)n2)s1` [Example 237, 4-(2-ethyl-4-methyl-1,3-thiazol-5-yl)-N-(3-nitrophenyl)pyrimidine-2-amine] has a chromatographic logP of 3.14. With `COCc1nc(C)c(-c2ccnc(Nc3cccc(OC)c3)n2)s1` [Example 296, 4-[2-(methoxymethyl)-4-methyl-1,3-thiazol-5-yl]-N-(3-methoxyphenyl)pyrimidine-2-amine] the chromatographic logP was 2.67. Work on `CCc1nc(C)c(-c2ccnc(Nc3ccc4c(c3)OCCO4)n2)s1` [Example 388, N-(2,3-dihydro-1,4-benzodioxin-6-yl)-4-(2-ethyl-4-methyl-1,3-thiazol-5-yl)pyrimidine-2-amine] yielded a chromatographic logP of 2.7. `Cc1nc(NCC2CCCO2)sc1-c1ccnc(Nc2cccc([N+](=O)[O-])c2)n1` (centres unmarked) [Example 355, 4-{4-methyl-2-[(tetrahydrofuran-2-ylmethyl)amino]-1,3-thiazol-5-yl}-N-(3-nitrophenyl)pyrimidine-2-amine] showed a chromatographic logP of 2.13. `Cc1nc(C2CCCCC2)sc1-c1ccnc(Nc2ccc(C(F)(F)F)cc2)n1` [Example 218, 4-(2-cyclohexyl-4-methyl-1,3-thiazol-5-yl)-N-[4-(trifluoromethyl)phenyl]pyrimidine-2-amine] gave a chromatographic logP of 5.62.

Same assay, conditions: * HPLC reversed-phase C18, 40° C., mobile phase 0.1% aqueous formic acid and acetonitrile, linear gradient 10% to 95% acetonitrile
In the case of `CN(C)c1nc(C(F)(F)F)c(-c2ccnc(Nc3ccc4c(c3)OCO4)n2)s1` [Example 704, N-1,3-benzodioxol-5-yl-4-[2-(dimethylamine)-4-(trifluoromethyl)-1,3-thiazol-5-yl]pyrimidine-2-amine], the logP is reported as 3.63*. In the case of `Cc1cc(Nc2nccc(-c3sc(N(C)C)nc3C(F)(F)F)n2)ccc1F` [Example 692, 4-[2-(dimethylamine)-4-(trifluoromethyl)-1,3-thiazol-5-yl]-N-(4-fluoro-3-methylphenyl)pyrimidine-2-amine], the logP is reported as 4.43*. In the case of `CN(C)c1nc(C(F)(F)F)c(-c2ccnc(Nc3cccc(N4CCCC4=O)c3)n2)s1` [Example 775, 1-[3-({4-[2-(dimethylamine)-4-(trifluoromethyl)-1,3-thiazol-5-yl]pyrimidin-2-yl}amino)phenyl]pyrrolidin-2-one], the logP is reported as 3.07*. For `Cc1nc(N(C)C)sc1-c1ccnc(Nc2ccc(N3CCCC3=O)cc2)n1` [Example 761, 1-[4-({4-[2-(dimethylamine)-4-methyl-1,3-thiazol-5-yl]pyrimidin-2-yl}amino)phenyl]pyrrolidin-2-one], the logP was 1.6*.

Same assay, conditions: HPLC, reversed-phase C 18, EEC Directive 79/831 Annex V.A8; method *: 40° C., 0.1% aqueous formic acid and acetonitrile, linear gradient 10% to 95% acetonitrile
In the case of `Cc1cc(Nc2nccc(-c3sc(N(C)C)nc3C)n2)ccc1F` [Example 294, 4-[2-(dimethylamine)-4-methyl-1,3-thiazol-5-yl]-N-(4-fluoro-3-methylphenyl)pyrimidine-2-amine], the logP is reported as 2.22*. In the case of `CN(C)c1nc(C(F)(F)F)c(-c2ccnc(Nc3ccccc3)n2)s1` [Example 292, 4-[2-(dimethylamine)-4-(trifluoromethyl)-1,3-thiazol-5-yl]-N-phenylpyrimidine-2-amine], the logP is reported as 3.88*. For `Cc1nc(NC(C)(C)C)sc1-c1ccnc(Nc2ccc(O)cc2)n1` [Example 180, 4-({4-[2-(tert-butylamine)-4-methyl-1,3-thiazol-5-yl]pyrimidin-2-yl}amino)phenol], the logP was 1.67*.

Same assay, conditions: logP, * HPLC reversed-phase C18, 40° C., mobile phase 0.1% aqueous formic acid and acetonitrile, linear gradient 10% to 95% acetonitrile
Work on `COCC(C)Nc1nc(C)c(-c2ccnc(Nc3ccc(NS(C)(=O)=O)cc3)n2)s1` (centres unmarked) [Example 657, N-{4-[(4-{2-[(2-methoxy-1-methylethyl)amino]-4-methyl-1,3-thiazol-5-yl}pyrimidin-2-yl)amino]phenyl}methanesulphonamide] yielded a chromatographic logP of 1.53. In the case of `COc1ccc(Nc2nccc(-c3sc(C)nc3C)n2)cc1` [Example 788, 4-(2,4-dimethyl-1,3-thiazol-5-yl)-N-(4-methoxyphenyl)pyrimidine-2-amine], the chromatographic logP is reported as 2.34. For `Cc1nc(C(F)F)c(-c2ccnc(Nc3ccccc3)n2)s1` [Example 710, 4-[4-(difluoromethyl)-2-methyl-1,3-thiazol-5-yl]-N-phenylpyrimidine-2-amine], the chromatographic logP was 2.97. For `CC(=O)c1cccc(N(C(C)=O)c2nccc(-c3sc(C4CC4)nc3C)n2)c1` [Example 665, N-(3-acetylphenyl)-N-[4-(2-cyclopropyl-4-methyl-1,3-thiazol-5-yl)pyrimidin-2-yl]acetamide], the chromatographic logP was 2.43. Work on `CC(=O)Nc1ccc(Nc2nccc(-c3sc(C)nc3C(F)(F)F)n2)cc1` [Example 698, N-[4-({4-[2-methyl-4-(trifluoromethyl)-1,3-thiazol-5-yl]pyrimidin-2-yl}amino)phenyl]acetamide] yielded a chromatographic logP of 2.26. For `COCCNc1nc(C)c(-c2ccnc(Nc3cccc([N+](=O)[O-])c3)n2)s1` [Example 781, 4-{2-[(2-methoxyethyl)amino]-4-methyl-1,3-thiazol-5-yl}-N-(3-nitrophenyl)pyrimidine-2-amine], the chromatographic logP was 1.97. In the case of `COc1cc(Nc2nccc(-c3sc(N4CCOCC4)nc3C)n2)cc(OC)c1OC` [Example 735, 4-(4-methyl-2-morpholin-4-yl-1,3-thiazol-5-yl)-N-(3,4,5-trimethoxyphenyl)pyrimidine-2-amine], the chromatographic logP is reported as 2.07. Compound `Cc1nc(NCC2CCCO2)sc1-c1ccnc(Nc2ccc(F)cc2)n1` (centres unmarked) [Example 489, N-(4-fluorophenyl)-4-{4-methyl-2-[(tetrahydrofuran-2-ylmethyl)amino]-1,3-thiazol-5-yl}pyrimidine-2-amine] has a chromatographic logP of 2.1. Work on `COC(=O)Nc1ccc(Nc2nccc(-c3sc(C4CC4)nc3C)n2)cc1` [Example 672, methyl-(4-{[4-(2-cyclopropyl-4-methyl-1,3-thiazol-5-yl)pyrimidin-2-yl]amino}phenyl)carbamate] yielded a chromatographic logP of 2.51. `Cc1nc(C(C)C)sc1-c1ccnc(Nc2ccc(CNC(=O)OC(C)(C)C)cc2)n1` [Example 633, tert-butyl-(4-{[4-(2-isopropyl-4-methyl-1,3-thiazol-5-yl)pyrimidin-2-yl]amino}benzyl)carbamate] showed a chromatographic logP of 3.68. Work on `Cc1nc(C)c(-c2ccnc(Nc3ccc(F)c(F)c3)n2)s1` [Example 756, N-(3,4-difluorophenyl)-4-(2,4-dimethyl-1,3-thiazol-5-yl)pyrimidine-2-amine] yielded a chromatographic logP of 2.99. With `COCCNc1nc(C)c(-c2ccnc(Nc3cccc(O)c3)n2)s1` [Example 690, 3-[(4-{2-[(2-methoxyethyl)amino]-4-methyl-1,3-thiazol-5-yl}pyrimidin-2-yl)amino]phenol] the chromatographic logP was 1.38. `COCCCNc1nc(C)c(-c2ccnc(Nc3cccc(Cl)c3)n2)s1` [Example 726, N-(3-chlorophenyl)-4-{2-[(3-methoxypropyl)amino]-4-methyl-1,3-thiazol-5-yl}pyrimidine-2-amine] gave a chromatographic logP of 2.28. Work on `Cc1nc(C(C)C)sc1-c1ccnc(Nc2ccc(F)cc2)n1` [Example 485, N-(4-fluorophenyl)-4-(2-isopropyl-4-methyl-1,3-thiazol-5-yl)pyrimidine-2-amine] yielded a chromatographic logP of 3.58. With `CCc1nc(C)c(-c2ccnc(Nc3ccc(Cl)cc3Cl)n2)s1` [Example 794, N-(2,4-dichlorophenyl)-4-(2-ethyl-4-methyl-1,3-thiazol-5-yl)pyrimidine-2-amine] the chromatographic logP was 4.9. Compound `COCc1nc(C)c(-c2ccnc(Nc3cccc(Cl)c3)n2)s1` [Example 432, N-(3-chlorophenyl)-4-[2-(methoxymethyl)-4-methyl-1,3-thiazol-5-yl]pyrimidine-2-amine] has a chromatographic logP of 3.24. Work on `COCCNc1nc(C)c(-c2ccnc(Nc3ccc(OC)nc3)n2)s1` [Example 784, 4-{2-[(2-methoxyethyl)amino]-4-methyl-1,3-thiazol-5-yl}-N-(6-methoxypyridin-3-yl)pyrimidine-2-amine] yielded a chromatographic logP of 1.45.

Same assay, conditions: logP, ** HPLC reversed-phase C18, 43° C., mobile phase 0.1% aqueous phosphoric acid and acetonitrile, linear gradient 10% to 95% acetonitrile
`Cc1nc(C)c(-c2ccnc(Nc3ccc(CNC(=O)OC(C)(C)C)cc3)n2)s1` [Example 625, tert-butyl-(4-{[4-(2,4-dimethyl-1,3-thiazol-5-yl)pyrimidin-2-yl]amino}benzyl)carbamate] gave a chromatographic logP of 2.7. `CC(=O)Nc1nc(C)c(-c2ccnc(Nc3cccc(Cl)c3)n2)s1` [Example 515, N-(5-{2-[(3-chlorophenyl)amino]pyrimidin-4-yl}-4-methyl-1,3-thiazol-2-yl)acetamide] showed a chromatographic logP of 2.49.

Same assay, conditions: logP, values marked *: HPLC on reversed-phase C 18, 40° C., mobile phase 0.1% aqueous formic acid and acetonitrile, linear gradient 10% to 95% acetonitrile
With `COc1ccc(Nc2nccc(-c3sc(NCC4CCCO4)nc3C)n2)cc1OC` (centres unmarked) [Example 817, N-(3,4-dimethoxyphenyl)-4-{4-methyl-2-[(tetrahydrofuran-2-ylmethyl)amino]-1,3-thiazol-5-yl}pyrimidine-2-amine] the chromatographic logP was 1.65. Compound `CC(=O)Nc1cccc(Nc2nccc(-c3sc(C(C)C)nc3C)n2)c1` [Example 818, N-(3-{[4-(2-isopropyl-4-methyl-1,3-thiazol-5-yl)pyrimidin-2-yl]amino}phenyl)acetamide] has a chromatographic logP of 2.26. `COCCCNc1nc(C)c(-c2ccnc(Nc3ccc(N4CCCC4=O)cc3)n2)s1` [Example 856, 1-{4-[(4-{2-[(3-methoxypropyl)amino]-4-methyl-1,3-thiazol-5-yl}pyrimidin-2-yl)amino]phenyl}pyrrolidin-2-one] gave a chromatographic logP of 1.57.

From patent publication US20090030024A1, “THIAZOLES AS FUNGICIDES” (priority 2005, published 2009)
